Data published in patent publication US20060252807A1, “Novel ortho-terphenyl inhibitors of p38 kinase and methods of treating inflammatory disorders” (Kalypsys, Inc., priority 2005, published 2006).

Molecular target: T1, active p38 alpha enzyme (Upstate Biotechnology) (Homo sapiens, UniProt Q16539)
T1 construct: purchased Upstate Biotechnology
Experiment: p38α biochemical assay (ATP turnover, luminescent detection, Cambrex PKlight)
Details: p38α biochemical assay, Table 1 Biological Activity
Procedure, shortened: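 Active p38α phosphorylates MapkapK2 whole protein with 1.4 uM final ATP, 2 h at 30C, in Tris/MOPS buffer with MgCl2, CaCl2, EGTA, EDTA, glycerol, β-mercaptoethanol and 1 mg/ml BSA. Compounds pin-delivered from DMSO; total ATP turnover read by luminescence after PKlight addition.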

T1 sequence (Q16539 whole entry): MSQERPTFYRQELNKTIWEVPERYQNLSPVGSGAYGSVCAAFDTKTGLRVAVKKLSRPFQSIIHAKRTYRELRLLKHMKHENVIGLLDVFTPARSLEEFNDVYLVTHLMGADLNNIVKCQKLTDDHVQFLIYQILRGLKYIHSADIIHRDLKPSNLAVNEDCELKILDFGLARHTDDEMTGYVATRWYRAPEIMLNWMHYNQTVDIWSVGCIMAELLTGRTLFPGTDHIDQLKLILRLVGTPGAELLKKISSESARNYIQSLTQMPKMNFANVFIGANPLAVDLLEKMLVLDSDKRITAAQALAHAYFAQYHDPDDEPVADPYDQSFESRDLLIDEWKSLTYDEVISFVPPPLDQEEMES

IC50 | Structure (SMILES)
> 1000 nM | CC(C)NC(=O)c1csc(-c2c(-c3ccc(F)cc3)noc2CNC(=O)c2ccc(OCc3ccccc3)cc2)n1 [Example 783]
> 1000 nM | CC(C)NC(=O)c1csc(-c2c(-c3ccc(F)cc3)noc2CNC(=O)CCc2ccccc2Br)n1 [Example 784]
> 1000 nM | CC(C)NC(=O)c1csc(-c2c(-c3ccc(F)cc3)noc2CNC(=O)CCc2cccc(Br)c2)n1 [Example 785]
> 1000 nM | CC(C)NC(=O)c1csc(-c2c(-c3ccc(F)cc3)noc2CNC(=O)C2CCCCN2C(=O)OC(C)(C)C)n1 (stereo not drawn) [Example 786]
> 1000 nM | CC(C)NC(=O)c1csc(-c2c(-c3ccc(F)cc3)noc2CNC(=O)c2ccc(Oc3cccc(O)c3)cc2)n1 [Example 787]
> 1000 nM | COc1ccc2cc(C(C)C(=O)NCc3onc(-c4ccc(F)cc4)c3-c3nc(C(=O)NC(C)C)cs3)ccc2c1 (stereo not drawn) [Example 788]
> 1000 nM | CC(C)NC(=O)c1csc(-c2c(-c3ccc(F)cc3)noc2CNC(=O)C2CN(C(=O)OC(C)(C)C)CCN2)n1 (stereo not drawn) [Example 789]
> 1000 nM | CC(C)NC(=O)c1csc(-c2c(-c3ccc(F)cc3)noc2CNC(=O)C2CN(C(=O)OC(C)(C)C)CCN2)n1 (stereo not drawn) [Example 790]
> 1000 nM | COc1ccc(Br)c(C(=O)NCc2onc(-c3ccc(F)cc3)c2-c2nc(C(=O)NC(C)C)cs2)c1 [Example 791]
> 1000 nM | CC(C)NC(=O)c1csc(-c2c(-c3ccc(F)cc3)noc2CNC(=O)C2CC(O)CN2C(=O)OC(C)(C)C)n1 (stereo not drawn) [Example 792]
> 1000 nM | CC(C)NC(=O)c1csc(-c2c(-c3ccc(F)cc3)noc2CNC(=O)C(C(C)C)N(C)C(=O)OC(C)(C)C)n1 (stereo not drawn) [Example 793]
> 1000 nM | CC(C)NC(=O)c1csc(-c2c(-c3ccc(F)cc3)noc2CNC(=O)c2ccc(C(F)(F)F)cc2[N+](=O)[O-])n1 [Example 794]
> 1000 nM | CC(C)NC(=O)c1csc(-c2c(-c3ccc(F)cc3)noc2CNC(=O)c2cc(Br)ccc2Cl)n1 [Example 795]
> 1000 nM | CC(C)NC(=O)c1csc(-c2c(-c3ccc(F)cc3)noc2CNC(=O)c2ccc(Cl)c(Br)c2)n1 [Example 796]

Same assay, conditions: p38α kinase; Table 1 Biological Activity

IC50 | Structure (SMILES)
> 1000 nM | CC(C)NC(=O)c1csc(-c2c(-c3ccc(F)cc3)noc2CNC(=O)c2ccccc2C(=O)c2ccc(O)cc2)n1 [Example 797]
> 1000 nM | CC(C)NC(=O)c1csc(-c2c(-c3ccc(F)cc3)noc2CNC(=O)c2ccccc2C(=O)c2ccc(F)cc2)n1 [Example 798]
> 1000 nM | CC(C)NC(=O)c1csc(-c2c(-c3ccc(F)cc3)noc2CNC(=O)C(C)c2ccc(-c3ccccc3)c(F)c2)n1 (stereo not drawn) [Example 799]
> 1000 nM | CC(C)NC(=O)c1csc(-c2c(-c3ccc(F)cc3)noc2CNC(=O)c2cccc(I)c2)n1 [Example 801]
> 1000 nM | CC(C)NC(=O)c1csc(-c2c(-c3ccc(F)cc3)noc2CNC(=O)C2CCCN2C(=O)OCc2ccccc2)n1 (stereo not drawn) [Example 802]
> 1000 nM | CCC(C)C(NC(=O)OC(C)(C)C)C(=O)NCc1onc(-c2ccc(F)cc2)c1-c1nc(C(=O)NC(C)C)cs1 (stereo not drawn) [Example 803]
> 1000 nM | CC(C)CC(NC(=O)OC(C)(C)C)C(=O)NCc1onc(-c2ccc(F)cc2)c1-c1nc(C(=O)NC(C)C)cs1 (stereo not drawn) [Example 804]
> 1000 nM | CC(C)NC(=O)c1csc(-c2c(-c3ccc(F)cc3)noc2CNC(=O)C(C)c2cccc(C(=O)c3ccccc3)c2)n1 (stereo not drawn) [Example 805]
> 1000 nM | CC(C)NC(=O)c1csc(-c2c(-c3ccc(F)cc3)noc2CNC(=O)C(Cc2ccccc2)NC(=O)OC(C)(C)C)n1 (stereo not drawn) [Example 806]
> 1000 nM | CC(C)NC(=O)c1csc(-c2c(-c3ccc(F)cc3)noc2CNC(=O)C(Cc2ccccn2)NC(=O)OC(C)(C)C)n1 (stereo not drawn) [Example 807]
> 1000 nM | CC(C)NC(=O)c1csc(-c2c(-c3ccc(F)cc3)noc2CNC(=O)C2Cc3ccccc3CN2C(=O)OC(C)(C)C)n1 (stereo not drawn) [Example 808]
> 1000 nM | CC(C)NC(=O)c1csc(-c2c(-c3ccc(F)cc3)noc2CNC(=O)C(Cc2ccc(O)cc2)NC(=O)OC(C)(C)C)n1 (stereo not drawn) [Example 809]
≤ 1000 nM | CC(C)NC(=O)c1csc(-c2c(-c3ccc(F)cc3)noc2CN)n1 [Example 810]
≤ 1000 nM | CC(C)NC(=O)c1csc(-c2c(-c3ccc(F)cc3)n[nH]c2C2CCN(C(=O)C=O)CC2)n1 [Example 813]
≤ 1000 nM | CC(C)NC(=O)c1csc(-c2c(-c3ccc(F)cc3)n[nH]c2C2CCN(C(=O)CC#N)CC2)n1 [Example 814]
≤ 1000 nM | CC(C)NC(=O)c1csc(-c2c(-c3ccc(F)cc3)n[nH]c2C2CCN(C(=O)C(C)O)CC2)n1 (stereo not drawn) [Example 815]
> 1000 nM | CCC(=O)C(=O)N1CCC(c2[nH]nc(-c3ccc(F)cc3)c2-c2nc(C(=O)NC(C)C)cs2)CC1 [Example 816]
≤ 1000 nM | CC(C)NC(=O)c1csc(-c2c(-c3ccc(F)cc3)n[nH]c2C2CCN(C(=O)C(C)(C)C)CC2)n1 [Example 817]
> 1000 nM | CC(C)CC(=O)N1CCC(c2[nH]nc(-c3ccc(F)cc3)c2-c2nc(C(=O)NC(C)C)cs2)CC1 [Example 818]
> 1000 nM | CC(C)NC(=O)c1csc(-c2c(-c3ccc(F)cc3)n[nH]c2C2CCN(C(=O)c3cnc[nH]3)CC2)n1 [Example 819]
> 1000 nM | CC(C)NC(=O)c1csc(-c2c(-c3ccc(F)cc3)n[nH]c2C2CCN(C(=O)C3=CCCC3)CC2)n1 [Example 821]
≤ 1000 nM | CC(C)NC(=O)c1csc(-c2c(-c3ccc(F)cc3)n[nH]c2C2CCN(C(=O)C3CCCO3)CC2)n1 (stereo not drawn) [Example 823]
≤ 1000 nM | CC(C)NC(=O)c1csc(-c2c(-c3ccc(F)cc3)n[nH]c2C2CCN(C(=O)c3ccccc3)CC2)n1 [Example 825]
≤ 1000 nM | CC(C)NC(=O)c1csc(-c2c(-c3ccc(F)cc3)n[nH]c2C2CCN(C(=O)C(O)CCl)CC2)n1 (stereo not drawn) [Example 829]
> 1000 nM | Cc1cc(C(=O)N2CCC(c3[nH]nc(-c4ccc(F)cc4)c3-c3nc(C(=O)NC(C)C)cs3)CC2)n[nH]1 [Example 830]
> 1000 nM | CC(C)NC(=O)c1csc(-c2c(-c3ccc(F)cc3)n[nH]c2C2CCN(C(=O)c3cn(C)cn3)CC2)n1 [Example 831]

IC50 | Structure (SMILES)
> 1000 nM | CC(C)NC(=O)c1csc(-c2c(-c3ccc(F)cc3)n[nH]c2C2CCN(C(=O)C3CCCCC3)CC2)n1 [Example 832]
≤ 1000 nM | CC(C)NC(=O)c1csc(-c2c(-c3ccc(F)cc3)n[nH]c2C2CCN(C(=O)c3cscn3)CC2)n1 [Example 833]
≤ 1000 nM | CCOC(=O)CC(=O)N1CCC(c2[nH]nc(-c3ccc(F)cc3)c2-c2nc(C(=O)NC(C)C)cs2)CC1 [Example 834]
> 1000 nM | Cc1cccc(C(=O)N2CCC(c3[nH]nc(-c4ccc(F)cc4)c3-c3nc(C(=O)NC(C)C)cs3)CC2)c1 [Example 835]
≤ 1000 nM | Cc1ccccc1C(=O)N1CCC(c2[nH]nc(-c3ccc(F)cc3)c2-c2nc(C(=O)NC(C)C)cs2)CC1 [Example 836]
> 1000 nM | Cc1ccc(C(=O)N2CCC(c3[nH]nc(-c4ccc(F)cc4)c3-c3nc(C(=O)NC(C)C)cs3)CC2)cc1 [Example 837]
≤ 1000 nM | CC(C)NC(=O)c1csc(-c2c(-c3ccc(F)cc3)n[nH]c2C2CCN(C(=O)c3cccc(O)c3)CC2)n1 [Example 838]
> 1000 nM | CC(C)NC(=O)c1csc(-c2c(-c3ccc(F)cc3)n[nH]c2C2CCN(C(=O)c3ccccc3O)CC2)n1 [Example 839]
> 1000 nM | CC(C)NC(=O)c1csc(-c2c(-c3ccc(F)cc3)n[nH]c2C2CCN(C(=O)c3ccc(F)cc3)CC2)n1 [Example 840]
> 1000 nM | CC(C)NC(=O)c1csc(-c2c(-c3ccc(F)cc3)n[nH]c2C2CCN(C(=O)c3cccc(F)c3)CC2)n1 [Example 841]
> 1000 nM | CCCCCCCC(=O)N1CCC(c2[nH]nc(-c3ccc(F)cc3)c2-c2nc(C(=O)NC(C)C)cs2)CC1 [Example 842]
> 1000 nM | CC(C)NC(=O)c1csc(-c2c(-c3ccc(F)cc3)n[nH]c2C2CCN(C(=O)c3cccc(C#N)c3)CC2)n1 [Example 844]
> 1000 nM | CC(C)NC(=O)c1csc(-c2c(-c3ccc(F)cc3)n[nH]c2C2CCN(C(=O)/C=C/c3ccccc3)CC2)n1 [Example 845]
≤ 1000 nM | CC(C)NC(=O)c1csc(-c2c(-c3ccc(F)cc3)n[nH]c2C2CCN(C(=O)c3ccccc3C=O)CC2)n1 [Example 846]
≤ 1000 nM | CC(C)NC(=O)c1csc(-c2c(-c3ccc(F)cc3)n[nH]c2C2CCN(C(=O)c3ccc(C=O)cc3)CC2)n1 [Example 847]
> 1000 nM | Cc1ccc(C(=O)N2CCC(c3[nH]nc(-c4ccc(F)cc4)c3-c3nc(C(=O)NC(C)C)cs3)CC2)c(C)c1 [Example 848]
> 1000 nM | Cc1ccccc1CC(=O)N1CCC(c2[nH]nc(-c3ccc(F)cc3)c2-c2nc(C(=O)NC(C)C)cs2)CC1 [Example 849]
> 1000 nM | Cc1cccc(C(=O)N2CCC(c3[nH]nc(-c4ccc(F)cc4)c3-c3nc(C(=O)NC(C)C)cs3)CC2)c1C [Example 850]
> 1000 nM | Cc1ccc(C)c(C(=O)N2CCC(c3[nH]nc(-c4ccc(F)cc4)c3-c3nc(C(=O)NC(C)C)cs3)CC2)c1 [Example 851]
> 1000 nM | Cc1cc(C)cc(C(=O)N2CCC(c3[nH]nc(-c4ccc(F)cc4)c3-c3nc(C(=O)NC(C)C)cs3)CC2)c1 [Example 852]
> 1000 nM | Cc1ccc(C(=O)N2CCC(c3[nH]nc(-c4ccc(F)cc4)c3-c3nc(C(=O)NC(C)C)cs3)CC2)cc1C [Example 853]
> 1000 nM | CCc1ccc(C(=O)N2CCC(c3[nH]nc(-c4ccc(F)cc4)c3-c3nc(C(=O)NC(C)C)cs3)CC2)cc1 [Example 854]
> 1000 nM | COc1ccc(C(=O)N2CCC(c3[nH]nc(-c4ccc(F)cc4)c3-c3nc(C(=O)NC(C)C)cs3)CC2)cc1 [Example 855]
> 1000 nM | Cc1cccc(C(=O)N2CCC(c3[nH]nc(-c4ccc(F)cc4)c3-c3nc(C(=O)NC(C)C)cs3)CC2)c1O [Example 856]
≤ 1000 nM | CC(C)NC(=O)c1csc(-c2c(-c3ccc(F)cc3)n[nH]c2C2CCN(C(=O)Cc3ccccc3O)CC2)n1 [Example 857]
> 1000 nM | CC(C)NC(=O)c1csc(-c2c(-c3ccc(F)cc3)n[nH]c2C2CCN(C(=O)Cc3cccc(O)c3)CC2)n1 [Example 858]
